Assay results from ChEMBL document CHEMBL4265965, “Dichloroacetophenones targeting at pyruvate dehydrogenase kinase 1 with improved selectivity and antiproliferative activity: Synthesis and structure-activity relationships” (Bioorg Med Chem Lett, 2018).
Active and inactive are the calls of the source. No cut-off for these calls is given here.

Key:
NCI-H1975 [1] = test: Antiproliferative activity against human NCI-H1975 cells assessed as inhibition of cell proliferation at 12 uM after 72 hrs by MTT assay relative to control; assay type: functional; conditions: for inhibition at 12 µM: NCI-H1975, 72 h
NCI-H1975 [2] = test: Antiproliferative activity against human NCI-H1975 cells assessed as inhibition of cell proliferation at 6 uM after 72 hrs by MTT assay relative to control; assay type: functional; conditions: for inhibition at 6 µM: NCI-H1975, 72 h
NCI-H1975 [3] = test: Antiproliferative activity against human NCI-H1975 cells assessed as inhibition of cell proliferation at 2 uM after 72 hrs by MTT assay relative to control; assay type: functional; conditions: for inhibition at 2 µM: NCI-H1975, 72 h
NCI-H1650 [4] = test: Antiproliferative activity against human NCI-H1650 cells assessed as inhibition of cell proliferation at 12 uM after 72 hrs by MTT assay relative to control; assay type: functional; conditions: for inhibition at 12 µM: NCI-H1650, 72 h
NCI-H1650 [5] = test: Antiproliferative activity against human NCI-H1650 cells assessed as inhibition of cell proliferation at 6 uM after 72 hrs by MTT assay relative to control; assay type: functional; conditions: for inhibition at 6 µM: NCI-H1650, 72 h
NCI-H1650 [6] = test: Antiproliferative activity against human NCI-H1650 cells assessed as inhibition of cell proliferation at 2 uM after 72 hrs by MTT assay relative to control; assay type: functional; conditions: for inhibition at 2 µM: NCI-H1650, 72 h
A549 [7] = test: Antiproliferative activity against human A549 cells assessed as inhibition of cell proliferation at 12 uM after 72 hrs by MTT assay relative to control; assay type: functional; conditions: for inhibition at 12 µM: A549, 72 h
A549 [8] = test: Antiproliferative activity against human A549 cells assessed as inhibition of cell proliferation at 6 uM after 72 hrs by MTT assay relative to control; assay type: functional; conditions: for inhibition at 6 µM: A549, 72 h
A549 [9] = test: Antiproliferative activity against human A549 cells assessed as inhibition of cell proliferation at 2 uM after 72 hrs by MTT assay relative to control; assay type: functional; conditions: for inhibition at 2 µM: A549, 72 h
[10] = target: T1, [Pyruvate dehydrogenase (acetyl-transferring)] kinase isozyme 1, mitochondrial (Homo sapiens, UniProt Q15118); test: Inhibition of recombinant human N-terminal His6/Sumo-tagged PDK1 (29 to 436 residues) expressed in Escherichia coli BL21 at 1 uM by kinase-glo luminescence assay relative to control
T1 sequence (Q15118 whole entry, the tested form may be a part): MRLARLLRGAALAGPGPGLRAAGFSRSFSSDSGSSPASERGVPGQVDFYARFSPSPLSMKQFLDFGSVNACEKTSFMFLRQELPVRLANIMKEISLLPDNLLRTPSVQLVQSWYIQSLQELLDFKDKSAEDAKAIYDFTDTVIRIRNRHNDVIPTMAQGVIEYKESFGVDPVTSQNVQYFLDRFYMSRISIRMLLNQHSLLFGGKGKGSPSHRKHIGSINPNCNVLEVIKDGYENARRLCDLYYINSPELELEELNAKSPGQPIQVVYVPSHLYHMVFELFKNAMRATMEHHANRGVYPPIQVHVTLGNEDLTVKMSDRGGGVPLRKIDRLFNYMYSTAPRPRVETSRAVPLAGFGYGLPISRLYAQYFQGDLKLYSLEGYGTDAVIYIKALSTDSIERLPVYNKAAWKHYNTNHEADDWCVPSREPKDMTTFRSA

[11] = target: T1, [Pyruvate dehydrogenase (acetyl-transferring)] kinase isozyme 1, mitochondrial; test: Inhibition of PDK1 in human NCI-H1975 cells assessed as reduction in pyruvate dehydrogenase phosphorylation at 10 uM after 24 hrs by Western blot analysis; assay type: cell-based
NCI-H1975 [12] = test: Antiproliferative activity against human NCI-H1975 cells assessed as inhibition of cell proliferation after 72 hrs by MTT assay; assay type: functional, cell-based; conditions: NCI-H1975, 72 h
[13] = target: Epidermal growth factor receptor (Homo sapiens, UniProt P00533); test: Inhibition of EGFR phosphorylation in human NCI-H1975 cells at 10 uM after 24 hrs by Western blot analysis; assay type: cell-based; conditions: nci-h1975, 24 h
Epidermal growth factor receptor, sequence (P00533 whole entry): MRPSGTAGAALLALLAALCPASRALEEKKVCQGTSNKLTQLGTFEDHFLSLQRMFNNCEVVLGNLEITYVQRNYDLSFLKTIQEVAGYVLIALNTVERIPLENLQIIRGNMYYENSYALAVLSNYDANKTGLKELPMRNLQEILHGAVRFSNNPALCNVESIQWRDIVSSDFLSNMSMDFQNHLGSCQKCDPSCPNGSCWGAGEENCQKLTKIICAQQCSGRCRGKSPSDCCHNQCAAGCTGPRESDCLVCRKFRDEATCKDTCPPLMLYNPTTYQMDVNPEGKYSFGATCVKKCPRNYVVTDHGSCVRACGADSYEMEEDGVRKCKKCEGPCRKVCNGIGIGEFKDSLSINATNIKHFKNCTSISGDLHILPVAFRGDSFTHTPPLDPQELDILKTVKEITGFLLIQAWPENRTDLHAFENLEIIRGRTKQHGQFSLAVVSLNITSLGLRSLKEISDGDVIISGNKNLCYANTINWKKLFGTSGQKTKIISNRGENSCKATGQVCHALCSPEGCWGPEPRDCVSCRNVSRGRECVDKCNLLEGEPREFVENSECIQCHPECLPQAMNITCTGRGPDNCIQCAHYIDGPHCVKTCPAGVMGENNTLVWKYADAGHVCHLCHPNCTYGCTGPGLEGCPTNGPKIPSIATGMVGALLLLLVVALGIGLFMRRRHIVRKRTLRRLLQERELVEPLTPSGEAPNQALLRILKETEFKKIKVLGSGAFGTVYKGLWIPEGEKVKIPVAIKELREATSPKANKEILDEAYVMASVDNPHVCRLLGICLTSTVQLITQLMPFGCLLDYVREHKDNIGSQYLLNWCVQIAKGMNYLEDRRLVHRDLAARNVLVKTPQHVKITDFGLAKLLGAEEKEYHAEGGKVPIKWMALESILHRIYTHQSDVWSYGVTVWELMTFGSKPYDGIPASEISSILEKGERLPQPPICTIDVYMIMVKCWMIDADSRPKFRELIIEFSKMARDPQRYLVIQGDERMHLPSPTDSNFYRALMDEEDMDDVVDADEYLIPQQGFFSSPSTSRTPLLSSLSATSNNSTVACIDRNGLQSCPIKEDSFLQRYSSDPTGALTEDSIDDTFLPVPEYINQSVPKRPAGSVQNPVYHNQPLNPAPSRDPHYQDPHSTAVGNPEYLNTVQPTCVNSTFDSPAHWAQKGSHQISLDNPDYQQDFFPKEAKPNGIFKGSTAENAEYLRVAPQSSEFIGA

[14] = target: RAC-alpha serine/threonine-protein kinase (Homo sapiens, UniProt P31749); test: Inhibition of AKT phosphorylation in human NCI-H1975 cells at 10 uM after 24 hrs by Western blot analysis; assay type: cell-based; conditions: nci-h1975, 24 h
RAC-alpha serine/threonine-protein kinase, sequence (P31749 whole entry): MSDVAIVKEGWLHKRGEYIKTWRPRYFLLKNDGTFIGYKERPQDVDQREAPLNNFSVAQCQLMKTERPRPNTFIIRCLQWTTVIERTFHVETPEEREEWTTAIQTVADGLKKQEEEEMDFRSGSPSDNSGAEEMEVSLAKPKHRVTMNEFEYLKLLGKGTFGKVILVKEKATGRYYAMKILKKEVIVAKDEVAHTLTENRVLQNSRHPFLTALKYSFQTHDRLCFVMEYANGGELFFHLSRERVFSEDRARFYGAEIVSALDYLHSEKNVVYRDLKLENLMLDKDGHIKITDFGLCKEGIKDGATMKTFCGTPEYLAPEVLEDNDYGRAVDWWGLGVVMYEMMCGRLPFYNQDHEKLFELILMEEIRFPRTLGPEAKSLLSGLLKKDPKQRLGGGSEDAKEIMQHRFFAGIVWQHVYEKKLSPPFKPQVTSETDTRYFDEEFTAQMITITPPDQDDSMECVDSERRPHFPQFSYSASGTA

[15] = Inhibition of ERK phosphorylation in human NCI-H1975 cells at 10 uM after 24 hrs by Western blot analysis; assay type: cell-based; conditions: nci-h1975, 24 h
[16] = target: T1, [Pyruvate dehydrogenase (acetyl-transferring)] kinase isozyme 1, mitochondrial; test: Binding affinity to recombinant human N-terminal His6/Sumo-tagged PDK1 (29 to 436 residues) expressed in Escherichia coli BL21
[17] = target: T1, [Pyruvate dehydrogenase (acetyl-transferring)] kinase isozyme 1, mitochondrial; test: Inhibition of PDK1 in human NCI-H1975 cells assessed as switch of pyruvate metabolism from lactate production to oxidative phosphorylation by measuring decrease in extracellular acidification rate at 10 uM pretreated for 4 hrs followed by glucose addition for 1 hr measured for 16 mins; assay type: cell-based
[18] = target: T1, [Pyruvate dehydrogenase (acetyl-transferring)] kinase isozyme 1, mitochondrial; test: Inhibition of PDK1 in human NCI-H1975 cells assessed as switch of pyruvate metabolism from lactate production to oxidative phosphorylation by measuring decrease in extracellular acidification rate at 10 uM pretreated for 4 hrs followed by oligomycin addition for 1 hr measured for 16 mins; assay type: cell-based
[19] = target: T1, [Pyruvate dehydrogenase (acetyl-transferring)] kinase isozyme 1, mitochondrial; test: Inhibition of PDK1 in human NCI-H1975 cells assessed as switch of pyruvate metabolism from lactate production to oxidative phosphorylation by measuring decrease in extracellular acidification rate at 10 uM pretreated for 4 hrs followed by 2DG addition for 1 hr measured for 16 mins; assay type: cell-based
[20] = target: T1, [Pyruvate dehydrogenase (acetyl-transferring)] kinase isozyme 1, mitochondrial; test: Inhibition of PDK1 in human NCI-H1975 cells assessed as switch of pyruvate metabolism from lactate production to oxidative phosphorylation by measuring increase in basal oxygen consumption rate at 10 uM incubated for 4 hrs measured for 16 mins; assay type: cell-based
[21] = target: T1, [Pyruvate dehydrogenase (acetyl-transferring)] kinase isozyme 1, mitochondrial; test: Inhibition of PDK1 in human NCI-H1975 cells assessed as switch of pyruvate metabolism from lactate production to oxidative phosphorylation by measuring increase in basal oxygen consumption rate at 10 uM incubated for 4 hrs followed by oligomycin addition for 1 hr measured for 16 mins; assay type: cell-based
[22] = target: T1, [Pyruvate dehydrogenase (acetyl-transferring)] kinase isozyme 1, mitochondrial; test: Inhibition of PDK1 in human NCI-H1975 cells assessed as switch of pyruvate metabolism from lactate production to oxidative phosphorylation by measuring increase in basal oxygen consumption rate at 10 uM incubated for 4 hrs followed by FCCP addition for 1 hr measured for 16 mins; assay type: cell-based
[23] = target: T1, [Pyruvate dehydrogenase (acetyl-transferring)] kinase isozyme 1, mitochondrial; test: Inhibition of PDK1 in human NCI-H1975 cells assessed as switch of pyruvate metabolism from lactate production to oxidative phosphorylation by measuring increase in basal oxygen consumption rate at 10 uM incubated for 4 hrs followed by antimycinA addition for 1 hr measured for 16 mins; assay type: cell-based
Sus scrofa = species on record: Sus scrofa; test: Inhibition of porcine PDK1 assessed as activation of pyruvate dehydrogenase complex at 1 uM measured after 3 mins

inhibition [10] | inhibition [11] | IC50 (NCI-H1975 [12]) [nM] | Structure (SMILES) | inhibition at 12 µM (NCI-H1975 [1]) [%] | inhibition at 6 µM (NCI-H1975 [2]) [%] | inhibition at 2 µM (NCI-H1975 [3]) [%] | inhibition at 12 µM (NCI-H1650 [4]) [%] | inhibition at 6 µM (NCI-H1650 [5]) [%] | inhibition at 2 µM (NCI-H1650 [6]) [%] | inhibition at 12 µM (A549 [7]) [%] | inhibition at 6 µM (A549 [8]) [%] | inhibition at 2 µM (A549 [9]) [%] | inhibition (Sus scrofa) | other results
19.7 to 67.9% | Active |  | O=C(c1ccc(OCCCBr)cc1)C(Cl)Cl | 99.9 | 99.6 | 69.8 | 92.5 | 65.4 | 27.9 | 98.4 | 80.1 | 21.7 |  | 
47.1% | Active | 2000 | COc1ccc(C(=O)C(Cl)Cl)cc1Cl | 99.4 | 95.8 | 51.7 | 98.7 | 78.5 | 36.5 | 88.4 | 56.7 | 17 |  | 
19.7 to 67.9% | Active | 2000 | O=C(c1ccc(-c2ccccc2)cc1)C(Cl)Cl | 99.4 | 90.3 | 56.3 | 96.4 | 79.2 | 42.2 | 91.2 | 75.9 | 22.5 |  | 
19.7 to 67.9% | Active |  | CC1CCOc2ccc(C(=O)C(Cl)Cl)cc21 (stereo unspecified) | 99.6 | 98 | 69.4 | 94.8 | 67.3 | 27 | 93.4 | 77.7 | 24.1 |  | 
66.6% |  | 1750 | CCc1ccc(C(=O)C(Cl)Cl)cc1[N+](=O)[O-] | 98.9 | 93.2 | 57 | 100 | 79.3 | 35.6 | 93.7 | 71.4 | 20.2 |  | inhibition (INH) [13]: Not Active; inhibition (INH) [14]: Not Active; inhibition (INH) [15]: Not Active; Kd [16]: 1290 nM; inhibition [17]: Active; inhibition [18]: Active; inhibition [19]: Active; inhibition [20]: Active; inhibition [21]: Active; inhibition [22]: Active; inhibition [23]: inactive
75.1% |  | 1590 | CC(C)c1ccc(C(=O)C(Cl)Cl)cc1[N+](=O)[O-] | 99.5 | 95 | 59.8 | 100 | 90 | 36.4 | 96.5 | 75.9 | 22.7 |  | inhibition (INH) [13]: Not Active; inhibition (INH) [14]: Not Active; inhibition (INH) [15]: Not Active; Kd [16]: 970 nM; inhibition [17]: Active; inhibition [18]: Active; inhibition [19]: Active; inhibition [20]: Active; inhibition [21]: Active; inhibition [22]: Active; inhibition [23]: inactive
15.1% |  | 200 | O=C(c1cccc(CCl)c1)C(Cl)Cl | 99.5 | 99.3 | 99 | 100 | 100 | 97.6 | 100 | 99.5 | 73.3 |  | 
19.7 to 67.9% | Active |  | CCCCOc1ccc(C(=O)C(Cl)Cl)cc1 | 97.4 | 92 | 46.5 | 97.6 | 70.7 | 30.7 | 67 | 46.6 | 20.9 |  | 
Active |  |  | O=C(c1ccc(OCc2ccccc2)c([N+](=O)[O-])c1)C(Cl)Cl | 99 | 98.6 | 58.4 | 67.3 | 29.9 |  | 99.3 | 87.9 | 29.9 | Active | inhibition (NCI-H1650 [6]): inactive
19.7 to 67.9% | Active | 2000 | CCCOc1ccc(C(=O)C(Cl)Cl)cc1 | 97.7 | 93 | 44.3 | 95.3 | 66 | 27.4 | 79.7 | 58.9 | 8.4 |  | 
59.9% | Active |  | CC(C)c1ccc(C(=O)C(Cl)Cl)cc1 | 96.7 | 96.1 | 60.1 | 91.2 | 65.3 | 26.6 | 88.1 | 65.8 | 24.4 |  | 
19.7 to 67.9% | Active |  | CCCCCOc1ccc(C(=O)C(Cl)Cl)cc1 | 98.5 | 96.6 | 57.5 | 98.2 | 81.5 | 32.8 | 85 | 60.4 | 20.2 |  | 
Active |  |  | O=C(c1ccc(OCCCCBr)c([N+](=O)[O-])c1)C(Cl)Cl | 86.7 | 54.7 | 15 | 66.7 | 38.8 | 21.8 | 72.9 | 33.4 | 5.7 | Active | 

Structure (SMILES) | inhibition [10] | inhibition [11] | IC50 (NCI-H1975 [12]) [nM] | inhibition at 12 µM (NCI-H1975 [1]) [%] | inhibition at 6 µM (NCI-H1975 [2]) [%] | inhibition at 2 µM (NCI-H1975 [3]) [%] | inhibition at 12 µM (NCI-H1650 [4]) [%] | inhibition at 6 µM (NCI-H1650 [5]) [%] | inhibition at 2 µM (NCI-H1650 [6]) [%] | inhibition at 12 µM (A549 [7]) [%] | inhibition at 6 µM (A549 [8]) [%] | inhibition at 2 µM (A549 [9]) [%] | inhibition (Sus scrofa) | other results
O=C(c1ccccn1)C(Cl)Cl | inactive |  |  | 98.5 | 73.1 | 15.9 | 90.5 | 39.6 | 14.8 | 31.5 | 15.3 | 3.3 | 10.2% | 
O=C(c1cccnc1)C(Cl)(Cl)Cl | inactive |  |  |  |  |  |  |  |  |  |  |  | inactive | inhibition (NCI-H1975 [1]): inactive; inhibition (NCI-H1975 [2]): inactive; inhibition (NCI-H1975 [3]): inactive; inhibition (NCI-H1650 [4]): inactive; inhibition (NCI-H1650 [5]): inactive; inhibition (NCI-H1650 [6]): inactive; inhibition (A549 [7]): inactive; inhibition (A549 [8]): inactive; inhibition (A549 [9]): inactive
O=C(c1ccncc1)C(Cl)Cl | inactive |  |  | 91.7 | 41.6 | 2.29 | 80.3 | 34.4 | 15.6 | 21.3 | 6.6 | 2.1 | 8.9% | 
